# Reference: patent publication US20020019372A1 (priority 2000, published 2002)
# What was measured:
# [1] = tested on: renal proximal tubular cells; assay: Monolayer DNA content as marker of renal proximal tubular cell proliferation after DCVC injury; format: cell-based, rabbit
# Description: (§1) Rabbit renal proximal tubules were isolated by iron oxide perfusion method and grown in 35 mm culture dishes in improved conditions as described previously (Nowak and Schnellmann, 1996). The purity of the renal proximal tubular S1 and S2 segments isolated by this method is approximately 96%. The culture medium was a 50:50 mixture of Dulbecco's modified Eagle's essential medium (DMEM) and Ham's F-12 nutrient mix without phenol red, pyruvate, and glucose, supplemented with 15 mM NaHCO3, 15 mM N-2hydroxyethylpiperazine-N′-2-ethanesulfonic acid, and 6 mM lactate (pH7.4, 295 mosmol/kg). Human transferrin (5 μg/ml), selenium (5 ng/ml), hydrocortisone (50 nM), bovine insulin (10 nM), and L-ascorbic acid-2-phosphate (0.05 mM or 0.5 mM) were added to the medium immediately before daily media change (2 ml/ dish).
# (§2) Renal proximal tubular cells monolayers reached confluence within 5 days and were treated with dichlorovinyl-L-cysteine (0.2 mM, 100 min) on day 6 of culture. Following dichlorovinyl-L-cysteine exposure, the remaining monolayer was washed with fresh medium and cultured for 4 days. Samples of renal proximal tubular cells were taken at various time points after dichlorovinyl-L-cysteine exposure for measurements of cellular functions. Prior to measurement of any functions, renal proximal tubular cells were washed with ice cold phosphate buffered saline (pH 7.4) or 37° C. culture media (for measurement of oxygen consumption, QO2) to remove non-viable cells.
# Monolayer DNA content was used as a marker of renal proximal tubular cells proliferation. Monolayers were solubilized in 0.05 M Tris-HCl (pH 7.4) containing 0.15 M NaCl and 0.05% Triton X-100 and DNA determined in cell lysates by the method of Labarca and Paigen (1980) as described previously (Nowak and Schnellmann, 1996). Protein was measured by the method of Lowry et al. (1951).
# [2] = tested on: renal proximal tubular cells; assay: Basal oxygen consumption (QO2) as marker of mitochondrial function; format: cell-based, rabbit
# Description: as §1, §2
# (§3) Washed renal proximal tubular cells monolayers were gently detached from the dishes with a rubber policeman, suspended in 37° C. culture medium and transferred to the oxygen consumption (QO2) measurement chamber. QO2 was measured polarographically using Clark type electrode as described previously (Nowak and Schnellmann, 1996; Nowak et al., 1998; Nowak et al., 1999). Ouabain-insensitive QO2 was measured in the presence of 0.1 mM ouabain and was calculated as a difference between basal and ouabain-insensitive QO2.
# [3] = tested on: renal proximal tubular cells; assay: Ouabain-insensitive oxygen consumption (QO2); format: cell-based, rabbit; conditions: for decrease of ouabain-insensitive QO2: 24 hr after DCVC
# Description: as §1, §2, §3
# [4] = tested on: α1 subunit of Na^+-K^+-ATPase; assay: Immunocytochemical localization of Na+-K+-ATPase (confocal laser scanning microscopy); format: cell-based, rabbit; conditions: for effect on Na+-K+-ATPase protein of the plasma membrane: DCVC 0.2 mM, independent of AscP concentration
# Description: as §1, §2
# At various time points following dichlorovinyl-L-cysteine exposure, control and DCVC-treated renal proximal tubular cells monolayers were washed 3 times with ice-cold PBS and fixed in 3.7% formaldehyde. Following permeabilization with 100% methanol for 10 min at −20° C., renal proximal tubular cells monolayers were washed with PBS containing 0.1% BSA and 0.3% Triton X-100 (PBS/0.1% BSA/0.3% Triton X-100) for 15 min at room temperature. Blocking of non-specific binding was performed for 30 min in PBS containing 8% BSA. […]
# [5] = tested on: renal proximal tubular cells; conditions: Nowak et al., 1999, cited from earlier work
# [6] = tested on: renal proximal tubular cells; assay: Ouabain-sensitive QO2 as marker of active Na+ transport; format: cell-based, rabbit
# Description: as §1, with “dish). […]” for “dish).”
# as §3
# [7] = DCVC-injured RPTC, 0.5 mM AscP, day 4
compound,measurement,setting,value
"N[C@@H](CSC(Cl)=CCl)C(=O)O [dichlorovinyl-L-cysteine, S-(1,2dichlorovinyl)-L-cysteine]",renal proximal tubular cells death and loss from the monolayer,"[1]; 24 hr after DCVC 0.2 mM, 100 min, independent of AscP 0.05 or 0.5 mM",60%
same,loss of monolayer DNA,"[1]; 24 hr after DCVC 0.2 mM, 100 min, regardless of AscP 0.05 or 0.5 mM",61%
same,decrease of basal QO2,"[2]; 24 hr after DCVC, RPTC grown in 0.05 mM AscP",59%
same,decrease in mitochondrial function,"[2]; DCVC 0.2 mM, 100 min, independent of AscP concentration",54%
same,decrease of basal QO2,"[2]; after DCVC, RPTC grown in 0.5 mM AscP",62%
same,decrease of ouabain-insensitive QO2,[3]; 0.05 mM AscP,32%
same,decrease of ouabain-insensitive QO2,[3]; 0.5 mM AscP,50%
same,ouabain-insensitive QO2,"[3]; DCVC-treated RPTC, 24 hr, 0.05 mM AscP",6.6±2.6 nmol O2/min/mg protein
same,ouabain-insensitive QO2,"[3]; DCVC-treated RPTC, 24 hr, 0.5 mM AscP",6.5±1.0 nmol O2/min/mg protein
same,effect on Na+-K+-ATPase protein of the plasma membrane,[4],loss of Na^+-K^+-ATPase protein from the basolateral membrane
same,effect on Na+-K+-ATPase protein of the plasma membrane,[4]; listed as DCVC,loss of the Na^+-K^+-ATPase protein from the basolateral domain
same,cell death and loss from the monolayer,[5]; earlier study,30%
"O=C1O[C@H]([C@@H](O)CO)C(O)=C1OP(=O)([O-])[O-].[Mg+2] [L-ascorbic acid phosphate, L-Ascorbic acid-2-phosphate magnesium salt]",proliferation and recovery of physiological functions and basolateral Na+-K+-ATPase expression,"[1]; DCVC-injured RPTC, 0.5 mM AscP, by day 4 (summary)","proliferated, recovered all examined physiological functions and the basolateral membrane expression of Na^+-K^+-ATPase by day 4"
same,increase of monolayer DNA content,"[1]; DCVC-injured RPTC, 0.5 mM AscP, day 2",1.6 fold
same,increase of monolayer DNA content,[1]; [7],2.3 fold
same,monolayer DNA content relative to controls,[1]; [7],81 % of controls
same,"monolayer DNA content in control RPTC, 0.05 vs 0.5 mM",[1]; control RPTC without DCVC,equivalent
same,"basal QO2 in control RPTC, 0.05 vs 0.5 mM",[2]; control RPTC without DCVC,equivalent
same,remaining decrease of ouabain-insensitive QO2,"[3]; DCVC-injured RPTC, through day 4, 0.05 mM AscP",45%
same,ouabain-insensitive QO2,"[3]; control RPTC without DCVC, 0.05 mM AscP",9.7±1.6 nmol O2/min/mg protein
same,ouabain-insensitive QO2,"[3]; control RPTC without DCVC, 0.5 mM AscP",12.9±1.5 nmol O2/min/mg protein
same,time of return of active Na+ transport to control levels,"[6]; DCVC-injured RPTC, pharmacological concentrations of AscP (discussion)",occurred on day 4
same,"ouabain-sensitive QO2 in control RPTC, 0.05 vs 0.5 mM",[6]; control RPTC without DCVC,equivalent
same,"basolateral Na+-K+-ATPase protein levels and distribution in control RPTC, physiological vs pharmacological concentration",[4]; control RPTC without DCVC,no difference
"EGF: epidermal growth factor, 10 ng/ml daily treatments",effect on inhibition of RPTC regeneration after DCVC-induced injury,"[5]; daily treatments, 10 ng/ml",can be overcome
